In brackets after ≈: the same amount, converted by molar mass.
How the values were obtained:
Mycobacterium avium [1] = assay: Antimycobacterial activity against Mycobacterium avium ATCC 25291 assessed as reduction in bacterial viability incubated for 3 days by MTT assay; type: organism-based; conditions: mycobacterium avium subsp. avium atcc 25291, 72 h
Mycobacterium avium [2] = assay: Antimycobacterial activity against Mycobacterium avium isolate MAV1 assessed as reduction in bacterial viability incubated for 3 days by MTT assay; type: organism-based; conditions: in vitro, 72 h
Mycobacterium avium [3] = assay: Antimycobacterial activity against Mycobacterium avium isolate MAV2 assessed as reduction in bacterial viability incubated for 3 days by MTT assay; type: organism-based; conditions: 72 h
Mycobacterium avium [4] = assay: Antimycobacterial activity against Mycobacterium avium isolate MAV3 assessed as reduction in bacterial viability incubated for 3 days by MTT assay; type: organism-based; conditions: 72 h
Mycobacterium avium [5] = assay: Antimycobacterial activity against Mycobacterium avium isolate MAV4 assessed as reduction in bacterial viability incubated for 3 days by MTT assay; type: organism-based; conditions: 72 h
Mycobacterium avium [6] = conditions: 72 h
Description: Antimycobacterial activity against Mycobacterium avium 104 assessed as reduction in bacterial viability incubated for 3 days by MTT assay

Mycobacterium avium [7] = conditions: in vivo, 72 h
Description: Antimycobacterial activity against Mycobacterium avium 104 mc'2 3 assessed as reduction in bacterial viability incubated for 3 days by MTT assay

Mycobacterium avium [8] = conditions: in vivo, 72 h; remark: listed apart in the source
Description: Antimycobacterial activity against Mycobacterium avium 104 mc'2 4 assessed as reduction in bacterial viability incubated for 3 days by MTT assay

[9] = tested on: Mycolicibacterium smegmatis; assay: Antimycobacterial activity against Mycobacterium smegmatis str. MC2 155 assessed as reduction in bacterial viability incubated for 3 days by MTT assay; type: organism-based; conditions: 72 h
[10] = tested on: Mycolicibacterium smegmatis MC2 155; assay: Inhibition of multidrug resistance efflux pump in Mycobacterium smegmatis str. MC2 155 assessed as increase in EtBr accumulation by measuring relative final fluorescence at <= 1/2 times MIC incubated for 60 mins by real-time fluorometry relative to control
[11] = Cytotoxicity in human monocyte-derived macrophages assessed as reduction in cell viability incubated for 3 days by alamar blue dye based assay; parameters: species or system Macrophage cell line; conditions: for CC50 at 72 h: human monocyte-derived macrophages; for MTC: macrophage cell line, 72 h
Mycobacterium avium [12] = assay: Inhibition of multidrug resistance efflux pump in Mycobacterium avium 104 assessed as increase in EtBr accumulation by measuring relative final fluorescence at 1/4 times MIC incubated for 60 mins by real-time fluorometry relative to control
Mycobacterium avium [13] = assay: Inhibition of multidrug resistance efflux pump in Mycobacterium avium 104 mc'2 3 assessed as increase in EtBr accumulation by measuring relative final fluorescence at 1/4 times MIC incubated for 60 mins by real-time fluorometry relative to control
Mycobacterium avium [14] = assay: Inhibition of multidrug resistance efflux pump in Mycobacterium avium 104 mc'2 4 assessed as increase in EtBr accumulation by measuring relative final fluorescence at 1/4 times MIC incubated for 60 mins by real-time fluorometry relative to control

Row | Compound | MIC (Mycobacterium avium [1]) | MIC (Mycobacterium avium [2]) | MIC (Mycobacterium avium [3]) | MIC (Mycobacterium avium [4]) | MIC (Mycobacterium avium [5]) | MIC (Mycobacterium avium [6]) | MIC (Mycobacterium avium [7]) | MIC (Mycobacterium avium [8]) | MIC [9] | Ratio [10] | CC50 at 72 h [11] | MTC [11] | Ratio (Mycobacterium avium [12]) | Ratio (Mycobacterium avium [13]) | Ratio (Mycobacterium avium [14])
1 | CC1COc2c(N3CCN(C)CC3)c(F)cc3c(=O)c(C(=O)O)cn1c23 (stereo not given) [OFLOXACIN] | 64 µg/mL (≈ 177 µM) | 4 µg/mL (≈ 11.1 µM) | 4 µg/mL (≈ 11.1 µM) | 16 µg/mL (≈ 44.3 µM) | 16 µg/mL (≈ 44.3 µM) | 16 µg/mL (≈ 44.3 µM) | 16 µg/mL (≈ 44.3 µM) | 16 µg/mL (≈ 44.3 µM) | – | – | – | – | – | – | –
2 | CC[C@H]1OC(=O)[C@H](C)[C@@H](O[C@H]2C[C@@](C)(OC)[C@@H](O)[C@H](C)O2)[C@H](C)[C@@H](O[C@@H]2O[C@H](C)C[C@H](N(C)C)[C@H]2O)[C@](C)(O)C[C@@H](C)CN(C)[C@H](C)[C@@H](O)[C@]1(C)O [AZITHROMYCIN] | 64 µg/mL (≈ 85.4 µM) | 256 µg/mL (≈ 342 µM) | > 512 µg/mL | 256 µg/mL (≈ 342 µM) | 256 µg/mL (≈ 342 µM) | > 512 µg/mL | > 512 µg/mL | > 512 µg/mL | – | – | – | – | – | – | –
3 | CC[n+]1c(-c2ccccc2)c2cc(N)ccc2c2ccc(N)cc21.[Br-] [HOMIDIUM BROMIDE] | 50 µg/mL | 25 µg/mL | 12.5 µg/mL | 12.5 µg/mL | 50 µg/mL | 25 µg/mL | 25 µg/mL | 25 µg/mL | – | – | – | – | – | – | –
4 | COc1ccc(-c2coc3cc(O)cc(O)c3c2=O)cc1 [BIOCHANIN] | – | – | – | – | – | > 64 µg/mL | > 64 µg/mL | > 64 µg/mL | > 64 µg/mL | 0.63 | 50.4 µM | 20 µM | – | – | –
5 | CCCOc1ccc(-c2cn(CCCN(C)C)c3ccccc3c2=O)cc1 | – | – | – | – | – | > 256 µg/mL | > 256 µg/mL | > 256 µg/mL | > 256 µg/mL | 1.38 | – | – | – | – | –
6 | O=C(O)c1cn(C2CC2)c2cc(N3CCNCC3)c(F)cc2c1=O [CIPROFLOXACIN] | 32 µg/mL (≈ 96.6 µM) | 2 µg/mL (≈ 6.04 µM) | 8 µg/mL (≈ 24.1 µM) | 32 µg/mL (≈ 96.6 µM) | 32 µg/mL (≈ 96.6 µM) | 16 µg/mL (≈ 48.3 µM) | 16 µg/mL (≈ 48.3 µM) | 16 µg/mL (≈ 48.3 µM) | – | – | – | – | – | – | –
7 | CCCOc1ccc(-c2cn(C)c3ccccc3c2=O)cc1 | – | – | – | – | – | – | – | – | 256 µg/mL (≈ 873 µM) | – | – | – | – | – | –
8 | CCCOc1ccc(-c2cn(CCN3CCN(Cc4ccccc4)CC3)c3ccccc3c2=O)cc1 | – | – | – | – | – | 256 µg/mL (≈ 532 µM) | 256 µg/mL (≈ 532 µM) | 256 µg/mL (≈ 532 µM) | 64 µg/mL (≈ 133 µM) | – | – | – | 3.19 | 2.93 | 1.96
9 | CC[C@H]1OC(=O)[C@H](C)[C@@H](O[C@H]2C[C@@](C)(OC)[C@@H](O)[C@H](C)O2)[C@H](C)[C@@H](O[C@@H]2O[C@H](C)C[C@H](N(C)C)[C@H]2O)[C@](C)(O)C[C@@H](C)C(=O)[C@H](C)[C@@H](O)[C@]1(C)O [ERYTHROMYCIN] | – | – | > 512 µg/mL | 512 µg/mL (≈ 698 µM) | 512 µg/mL (≈ 698 µM) | – | > 512 µg/mL | > 512 µg/mL | – | – | – | – | – | – | –
10 | CCCOc1ccc(-c2cn(CCN3CCNCC3)c3ccccc3c2=O)cc1 | – | – | – | – | – | > 256 µg/mL | > 256 µg/mL | > 256 µg/mL | > 256 µg/mL | 1.42 | – | – | – | – | –
11 | CCCOc1ccc(-c2c[nH]c3ccccc3c2=O)cc1 | – | – | – | – | – | Nd(Insoluble) | Nd(Insoluble) | Nd(Insoluble) | Nd(Insoluble) | – | – | – | – | – | –
12 | CC[C@H]1OC(=O)[C@H](C)[C@@H](O[C@H]2C[C@@](C)(OC)[C@@H](O)[C@H](C)O2)[C@H](C)[C@@H](O[C@@H]2O[C@H](C)C[C@H](N(C)C)[C@H]2O)[C@](C)(OC)C[C@@H](C)C(=O)[C@H](C)[C@@H](O)[C@]1(C)O [CLARITHROMYCIN] | 8 µg/mL (≈ 10.7 µM) | 4 µg/mL (≈ 5.35 µM) | > 1024 µg/mL | 16 µg/mL (≈ 21.4 µM) | 8 µg/mL (≈ 10.7 µM) | 8 µg/mL (≈ 10.7 µM) | > 512 µg/mL | > 512 µg/mL | – | – | – | – | – | – | –
13 | COc1ccc(CCN(C)CCCC(C#N)(c2ccc(OC)c(OC)c2)C(C)C)cc1OC (stereo not given) | 800 µg/mL (≈ 1760 µM) | 400 µg/mL (≈ 880 µM) | 400 µg/mL (≈ 880 µM) | 800 µg/mL (≈ 1760 µM) | 800 µg/mL (≈ 1760 µM) | 800 µg/mL (≈ 1760 µM) | 800 µg/mL (≈ 1760 µM) | 800 µg/mL (≈ 1760 µM) | 800 µg/mL (≈ 1760 µM) | – | 117 µM | 10 µM | – | – | –

Source: ChEMBL document CHEMBL4130462, “Natural isoflavone biochanin A as a template for the design of new and potent 3-phenylquinolone efflux inhibitors against Mycobacterium avium” (Eur J Med Chem, 2017)
